# Experimental data: publication PMC8117003, “Pharmacokinetic Profile and Oral Bioavailability of Diosgenin, Charantin, and Hydroxychalcone From a Polyherbal Formulation” (Frontiers in Pharmacology, 2021)
# Values joined by “and” are separate entries in the source; they are usually repeats but may differ in a detail not shown here. Equal entries are not always repeated. Where two headings read alike, the source gives them in different places.
# Legend:
# [1] = Stability of marker compounds (bioanalytical HPTLC, quality control samples); assay type: in vitro ADME, rat; settings: for Freeze thaw stability / Short-term room temperature stability: rat plasma
# Description: Sample stability was determined by analyzing samples for quality control for analyte’s stock stability in solvent, refrigerator stock solution stability, freeze and thaw stability, and bench top stability. The stability experiments were carried out to evaluate the degradations of the marker compounds under different experimental conditions. […] As per the acceptance criteria, % ratio (Stability/comparison) should be within 85–115%; from the above results, it was concluded that all the marker compounds were within the acceptance criteria for stability study Table 7.
# [2] = Pharmacokinetics and absolute bioavailability of pure marker compounds after single oral and i.v. dose; assay type: in vivo, male Wistar rats; settings: for MRT: MRT (mean residence time); for half-life: t 1/2 (plasma half-life); for k el: plasma, read-out: Kel (elimination rate constant) (converted); for k el / Kel (elimination rate constant): rat plasma
# Description: Plasma concentrations of active marker compounds were determined using validated high-performance thin layer chromatography (HPTLC) with the UV detection method.
# The plasma samples (150 µl) were deproteinized by adding mixture of methanol: dichloromethane (1:1), followed by vortex mixing at 3000 rpm for 5 min. The supernatant was separated and further extracted with about 1.5 ml of ethyl acetate by mixing on vortex mixer at 3000 rpm for 10 min. The ethyl acetate layer was then collected and evaporated to dryness, followed by reconstitution with mobile phase (200 µl) containing chloroform: glacial acetic acid: methanol: water ((4.0:3.0:2.0:1.0) v/v and 100 µl was applied on a HPTLC plate. The optimized HPTLC conditions for development and quantification of the constituents is given in Table 2.
# Absolute bioavailabilities of marker compounds viz. diosgenin, charantin, and hydroxychalcone were determined in male Wistar rats. The animals weighing 300–350 gm were fasted overnight before the dosing with free access to drinking water throughout the experimental period. For the purpose of dosing all the three marker compounds viz, diosgenin, charantin, and hydroxychalcone were suspended in water to make the dose of 15 mg/kg per oral to be administrated to the groups of […]. The animals were divided into two groups with six animals in each group. The first group received the marker compounds in the dose of 1.5 mg/kg i.v. via lateral tail vein, while the second group received the marker compounds in the dose of 15 mg/kg p.o. The rats were anesthetized using ether and blood samples were collected through puncturing the retro-orbital plexus at 0, 0.17, 0.5, 1, 2, 4, 6, 12, and 24 h time points. Blood samples were centrifuged to separate plasma and stored at −20°C until bioanalysis.
# Non-compartmental analysis of data was performed using statistical moment theory. The peak plasma concentration (Cmax) and the corresponding time (Tmax) were directly obtained from the raw data.
# The area under the plasma concentration vs. time curve upto the last quantifiable point, AUC(0-t), was calculated by the linear and log-linear trapezoidal rule summation: AUC(0−t) =∑C0+Ct/2× Tt− T0.
# The AUC(0-t) was extrapolated to infinity (i.e., […]) by adding the quotient of Clast/Kel, AUC(t−∞) = Clast/Kel,
# Kel was calculated by the linear regression of the log-transformed concentrations of the last three data points in the terminal phase. Kel = −slope × 2.303.
# The half-life of the elimination phase was obtained from using the relationship, t 1/2 = 0.693/Kel.
# Clearance was calculated using the relationship Cl = Vd × Kel
# Apparent volume of distribution was calculated using relationship Vd = Dose Administered/Plasma concentration.
# Absolute oral bioavailability (F) was calculated using relationship F = {[AUC (oral)/AUC (iv)] × [Dose (iv)/Dose (oral)]} × 100.
# [3] = male, Wistar, rat, in vivo, iv, 1.5 mg/kg
# [4] = male, Wistar, rat, in vivo, po, 15 mg/kg
# [5] = pure marker, oral single dose 15 mg/kg, 15 mg/kg
compound,measurement,setting,value
C[C@@H]1CC[C@@]2(OC1)O[C@H]1C[C@H]3[C@@H]4CC=C5C[C@@H](O)CC[C@]5(C)[C@H]4CC[C@]3(C)[C@H]1[C@@H]2C [Diosgenin],Refrigerator standard stock solution stability,[1]; 0.4 µg/ml,91.73 ± 0.46%
same,Room temperature standard stock solution stability,[1]; 0.4 µg/ml,85.18 ± 0.45%
same,Refrigerator standard stock solution stability,[1]; 0.8 µg/ml,90.24 ± 1.13%
same,Room temperature standard stock solution stability,[1]; 0.8 µg/ml,84.86 ± 1.23%
same,Refrigerator standard stock solution stability,[1]; 1.2 µg/ml,89.56 ± 2.21%
same,Room temperature standard stock solution stability,[1]; 1.2 µg/ml,85.03 ± 2.16%
same,Degradation in plasma,"[1]; plasma, under different experimental conditions",no significant degradation
same,Freeze thaw stability,[1]; 0.4 µg/ml,87.06%
same,Short-term room temperature stability,[1]; 0.4 µg/ml,98.64%
same,Freeze thaw stability,[1]; 0.8 µg/ml,94.52%
same,Short-term room temperature stability,[1]; 0.8 µg/ml,97.90%
same,Freeze thaw stability,[1]; 1.2 µg/ml,97.86%
same,Short-term room temperature stability,[1]; 1.2 µg/ml,98.25%
same,bioavailability,"[2]; male, Wistar, rat, in vivo",9 ± 0.2%
same,AUC 0-∞,[2]; [3],4.9575 ± 0.44 µg·h/mL
same,Cl (drug clearance),[2]; [3],0.2221 ± 0.05 mL/h/kg
same,Cmax,[2]; [3],0.6122 ± 0.1 µg/mL
same,MRT (mean residence time),[2]; [3],9.9420 ± 0.90 h
same,Vd (apparent volume of distribution),[2]; [3],0.0025397 ± 0.00057 L/kg
same,t 1/2 (plasma half-life),[2]; [3],7.9300 ± 0.37 h
same,AUC(0-inf),[2]; [3],4.47 µg·h/mL
same,clearance,"[2]; male, Wistar, rat, in vivo, iv, 1.5 mg/kg, Cl (drug clearance)",220 mL/h/kg
same,Cmax,"[2]; male, Wistar, rat, in vivo, iv, 1.5 mg/kg, Cmax",0.57 µg/mL
same,MRT,[2]; [3],8.2 h
same,Vd,"[2]; male, Wistar, rat, in vivo, iv, 1.5 mg/kg, Vd (apparent volume of distribution)",2.5 L/kg
same,half-life,[2]; [3],7.56 h
same,AUC 0-∞,[2]; [4],4.4753 ± 0.06 µg·h/mL
same,Cl (drug clearance),[2]; [4],2.5143 ± 0.09 mL/h/kg
same,Cmax,[2]; [4],0.5773 ± 0.012 µg/mL
same,MRT (mean residence time),[2]; [4],8.2008 ± 0.15 h
same,Tmax,[2]; [4],1 h
same,t 1/2 (plasma half-life),[2]; [4],7.5638 ± 0.21 h
same,AUC(0-inf),[2]; [4],4.95 µg·h/mL
same,Cmax,"[2]; male, Wistar, rat, in vivo, po, 15 mg/kg, Cmax",0.61 µg/mL
same,MRT,[2]; [4],9.94 h
same,half-life,[2]; [4],7.93 h
same,k el,"[2]; male, Wistar, rat, iv, 1.5 mg/kg, pure marker, IV single dose 1.5 mg/kg",2.5e-05 s⁻¹
same,k el,"[2]; male, Wistar, rat, po, 15 mg/kg, pure marker, oral single dose 15 mg/kg",2.22e-05 s⁻¹
same,AUMC 0-∞,"[2]; pure marker, IV single dose 1.5 mg/kg",17.3937 ± 2.10 µg.h^2/ml
same,Kel (elimination rate constant),"[2]; pure marker, IV single dose 1.5 mg/kg, 1.5 mg/kg",0.0875 ± 0.004 h⁻¹
same,AUMC 0-∞,"[2]; pure marker, oral single dose 15 mg/kg",36.700 ± 0.77 µg.h^2/ml
same,Kel (elimination rate constant),[2]; [5],0.0917 ± 0.003 h⁻¹
same,Ka (rate of absorption),[2]; [5],1.1 h⁻¹ and 1.1 ± 0.10 h⁻¹
Charantin,Degradation in plasma,[1],no significant degradation
same,Absolute bioavailability,"[2]; rat, in vivo",8.18 ± 0.36%
same,AUMC 0-∞,"[2]; rat, in vivo, iv, 1.5 mg/kg",182.9438 ± 1.74 µg.h^2/ml
same,AUMC 0-∞,"[2]; rat, in vivo, po, 15 mg/kg",176.7245 ± 1.83 µg.h^2/ml
same,Cl (drug clearance),"[2]; rat, in vivo, po, 15 mg/kg",5.9268 ± 0.31 mL/h/kg
same,Tmax,"[2]; rat, in vivo, po, 15 mg/kg",6 h
